Measurements taken from patent US11371013B2, “Culture medium composition and method of culturing cell or tissue using thereof” (Nissan Chemical Industries, Ltd., priority 2012, dated 2022).
Starred links: 1 amine or outer side, 2 acyl side, 3 side chain; linkers in the order of their positions; H or OH if unused. Positions of bridges follow the written chain, without caps; N, C: chain ends. Non-standard residues stand in square brackets, D forms with d. Residues, ends and D or L forms follow the SMILES beside them. Chains are numbered I, II in the order given. Actinocin(9to1) = Cc1c2oc3c(C)ccc(C(=O)[*:1])c3nc-2c(C(=O)[*:2])c(N)c1=O; NMeV = CN[C@H](C(=O)O)C(C)C; Sar = CNCC(=O)O

How the values were obtained:
Type in all cases: cell-based, human
HeLa cells [1] = assay: Cell proliferation test using various anticancer drugs; conditions: DAG 0.030% medium; for cell density: HeLa cells 5 days later
Protocol: This aqueous solution was sterilized at 121° C. for 20 min in an autoclave. […] The anticancer drug used was Adriamycin (manufactured by WAKO), Paclitaxel (manufactured by WAKO) or Mitomycin C (manufactured by WAKO).
Successively, this plate was cultured by being stood still in a CO2 incubator (37° C., 5% CO2) for 7 days. After culturing for 3, 5, 7 days, to the culture medium was added a WST-8 solution (manufactured by DOJINDO Laboratories, 20 μL), and the mixture was incubated at 37° C. for 100 min. The absorbance at 450 nm was measured by an absorbance spectrometer (manufactured by Molecular Devices, SPECTRA MAX 190), and the number of viable cells was measured by subtracting the absorbance of the medium alone. The culture medium containing the cells after 5 days of culture was stirred with a pipette and the obtained stirred solution (20 μL) was mixed with Trypan Blue stain 0.4% (manufactured by Invitrogen, 20 μL) and the cell density was measured under a microscope.

HeLa cells [2] = assay: Comparison with single layer culture method in cell proliferation test using agent for inducing apoptosis; conditions: day 4
Protocol: (§1) This aqueous solution was sterilized at 121° C. for 20 min in an autoclave.
Each plate was cultured by being stood still in a CO2 incubator (37° C., 5% CO2). […] To the culture medium on day 4 was added an ATP reagent (150 μL) (CellTiter-Glo (registered trade mark) Luminescent Cell Viability Assay, manufactured by Promega) to give a suspension, which was stood for about 10 min at room temperature, and the luminescence intensity (RLU value) was measured by FlexStation3 (manufactured by Molecular Devices), and the number of viable cells was measured by subtracting the luminescence value of the medium alone. For WST-8 measurement, a WST-8 solution (manufactured by is DOJINDO Laboratories, 15 μL) was added, the mixture was incubated at 37° C. for 100 min, the absorbance at 450 nm was measured by an absorbance spectrometer (manufactured by Molecular Devices, SPECTRA MAX 190), and the number of viable cells was measured by subtracting the absorbance of the medium alone.

HeLa cells [3] = assay: Comparison with single layer culture method in cell proliferation test using anticancer drug; conditions: day 4
Protocol: as §1
Each plate was cultured by being stood still in a CO2 incubator (37° C., 5% CO2). […] The anticancer drug used was Adriamycin (manufactured by WAKO), Paclitaxel (manufactured by WAKO) or Mitomycin C (manufactured by WAKO). To the culture medium on day 4 was added an ATP reagent (150 μL) (CellTiter-Glo (registered trade mark) Luminescent Cell Viability Assay, manufactured by Promega) to give a suspension, which was stood for about 10 min at room temperature, and the luminescence intensity (RLU value) was measured by FlexStation3 (manufactured by Molecular Devices), and the number of viable cells was measured by subtracting the luminescence value of the medium alone. For WST-8 measurement, a WST-8 solution (manufactured by DOJINDO Laboratories, 15 μL) was added, the mixture was incubated at 37° C. for 100 min, the absorbance at 450 nm was measured by an absorbance spectrometer (manufactured by Molecular Devices, SPECTRA MAX 190), and the number of viable cells was measured by subtracting the absorbance of the medium alone.

[4] = 1 μM, deacylated gellan gum addition group (0.015%)
[5] = 10 μM, deacylated gellan gum addition group (0.015%)
[6] = 10 μM, single layer culture group
[7] = 1 μM, single layer culture group
[8] = 0.005 μM, deacylated gellan gum addition group (0.015%)
[9] = 0.005 μM, single layer culture group
[10] = 0.05 μM, deacylated gellan gum addition group (0.015%)
[11] = 0.05 μM, single layer culture group
[12] = 0.5 μM, deacylated gellan gum addition group (0.015%)
[13] = 0.5 μM, single layer culture group

**Q.** Which cell density (HeLa cells [1]; 1 μM) does the source give for `COc1cccc2c1C(=O)c1c(O)c3c(c(O)c1C2=O)C[C@@](O)(C(=O)CO)C[C@@H]3O[C@H]1C[C@H](N)[C@H](O)[C@H](C)O1` [Adriamycin] here?
**A.** 0.6 10^4 cells/mL

**Q.** How did the “% Control of RLU value (ATP)” value (HeLa cells [2]; [4]) turn out when `C[C@@H]1C[C@H]2[C@@H]3CCC4=CC(=O)C=C[C@]4(C)[C@@]3(F)[C@@H](O)C[C@]2(C)[C@@]1(O)C(=O)CO` [Dexamethasone] was run?
**A.** 232 % Control

**Q.** And the “% Control of absorbance at 450 nm (WST-8)” value (from here on “% Control of absorbance”) (HeLa cells [2]; [4])?
**A.** 184 % Control

**Q.** What about the “% Control of RLU value (ATP)” value (HeLa cells [2]; [5]) of the same molecule?
**A.** 241 % Control

**Q.** What about the “% Control of absorbance” value (HeLa cells [2]; [5]) of the same molecule?
**A.** 173 % Control

**Q.** And the “% Control of RLU value (ATP)” value (HeLa cells [2]; [6])?
**A.** 116 % Control

**Q.** What does the source list for `Cc1c2oc3c(C)ccc(C(=O)N[C@@H]4C(=O)N[C@H](C(C)C)C(=O)N5CCC[C@H]5C(=O)N(C)CC(=O)N(C)[C@@H](C(C)C)C(=O)O[C@@H]4C)c3nc-2c(C(=O)N[C@@H]2C(=O)N[C@H](C(C)C)C(=O)N3CCC[C@H]3C(=O)N(C)CC(=O)N(C)[C@@H](C(C)C)C(=O)O[C@@H]2C)c(N)c1=O` [Actinomycin D] (I: T[dV]P[Sar][NMeV] / II: T[dV]P[Sar][NMeV]; ester I:1-I:C, II:1-II:C; linker I:N-II:N via Actinocin(9to1))?
**A.** % Control of RLU value (ATP) (HeLa cells [2]; [4]): 4 % Control; % Control of absorbance at 450 nm (WST-8) (HeLa cells [2]; [4]): 3 % Control; % Control of RLU value (ATP) (HeLa cells [2]; [7]): 2 % Control; % Control of absorbance at 450 nm (WST-8) (HeLa cells [2]; [7]): 2 % Control; % Control of RLU value (ATP) (HeLa cells [2]; [5]): 6 % Control; % Control of absorbance at 450 nm (WST-8) (HeLa cells [2]; [5]): 12 % Control; % Control of RLU value (ATP) (HeLa cells [2]; [6]): 2 % Control; % Control of absorbance at 450 nm (WST-8) (HeLa cells [2]; [6]): 4 % Control

**Q.** For `CO[C@@]12[C@H](COC(N)=O)C3=C(C(=O)C(C)=C(N)C3=O)N1C[C@@H]1N[C@@H]12` [Mitomycin C], which cell density (HeLa cells [1]; 0.01 μM) is on record?
**A.** 1.0 10^4 cells/mL

**Q.** What about the “cell number (absorbance at 450 nm, WST-8)” value (“cell number” for short) (HeLa cells [1]; 0.01 μM, culture day 3) of the same molecule?
**A.** 0.089

**Q.** And the “cell number” value (HeLa cells [1]; 0.01 μM, culture day 5)?
**A.** 0.016

**Q.** And the “cell number” value (HeLa cells [1]; 0.01 μM, culture day 7)?
**A.** <0

**Q.** What about the cell density (HeLa cells [1]; 0.1 μM) of the same molecule?
**A.** 0.4 10^4 cells/mL

**Q.** What about the “cell number” value (HeLa cells [1]; 0.1 μM, culture day 3) of the same molecule?
**A.** 0.032

**Q.** What about the “cell number” value (HeLa cells [1]; 0.1 μM, culture day 5) of the same molecule?
**A.** <0

**Q.** And the “cell number” value (HeLa cells [1]; 0.1 μM, culture day 7)?
**A.** <0

**Q.** What about the cell density (HeLa cells [1]; 1 μM) of the same molecule?
**A.** 0.1 10^4 cells/mL

**Q.** And the “cell number” value (HeLa cells [1]; 1 μM, culture day 3)?
**A.** <0

**Q.** What about the “cell number” value (HeLa cells [1]; 1 μM, culture day 5) of the same molecule?
**A.** <0

**Q.** What about the “cell number” value (HeLa cells [1]; 1 μM, culture day 7) of the same molecule?
**A.** <0

**Q.** And the “% Control of RLU value (ATP)” value (HeLa cells [3]; [8])?
**A.** 83 % Control

**Q.** What about the “% Control of absorbance” value (HeLa cells [3]; [8]) of the same molecule?
**A.** 94 % Control

**Q.** And the “% Control of RLU value (ATP)” value (HeLa cells [3]; [9])?
**A.** 99 % Control

**Q.** And the “% Control of absorbance” value (HeLa cells [3]; [9])?
**A.** 101 % Control

**Q.** What about the “% Control of RLU value (ATP)” value (HeLa cells [3]; [10]) of the same molecule?
**A.** 48 % Control

**Q.** What about the “% Control of absorbance” value (HeLa cells [3]; [10]) of the same molecule?
**A.** 37 % Control

**Q.** What about the “% Control of RLU value (ATP)” value (HeLa cells [3]; [11]) of the same molecule?
**A.** 89 % Control

**Q.** And the “% Control of absorbance” value (HeLa cells [3]; [11])?
**A.** 83 % Control

**Q.** And the “% Control of RLU value (ATP)” value (HeLa cells [3]; [12])?
**A.** 29 % Control

**Q.** What about the “% Control of absorbance” value (HeLa cells [3]; [12]) of the same molecule?
**A.** 12 % Control

**Q.** And the “% Control of RLU value (ATP)” value (HeLa cells [3]; [13])?
**A.** 86 % Control

**Q.** What about the “% Control of absorbance” value (HeLa cells [3]; [13]) of the same molecule?
**A.** 71 % Control
